Activity calls are given as the source filed them. The rule behind the calls is not given here.
Key:
Type in all cases: functional, cell-based
[1] = system: HeLa; test: Induction of pexophagy in human HeLa cells expressing HyPer-PTS1 assessed as increase in peroxisomal ROS levels at 5 uM incubated for 48 hrs in presence of ROS scavenger NAC by fluorescence based analysis
[2] = system: HeLa; test: Induction of pexophagy in human HeLa cells assessed as reduction in peroxisomes at 5 uM incubated for 48 hrs treated with Bafilomycin A1 by immunostaining based analysis
[3] = system: HeLa; test: Induction of autophagy in human HeLa cells assessed as reduction in peroxisomes number in mitochondria at 5 uM incubated for 48 hrs in presence of TOMM20 antibody by fluorescence microscopic analysis
[4] = system: HeLa; test: Induction of pexophagy in wild-type human HeLa cells assessed as […] in LC3II protein expression at 5 uM incubated for 48 hrs by Western blot analysis
[5] = system: HeLa; test: Induction of pexophagy in human HeLa cells at 5 uM cotreated with KU55933 measured at 48 hrs by immunostaining based analysis
[6] = system: HeLa; test: Induction of pexophagy in human HeLa cells expressing HyPer-PTS1 assessed as reduction in peroxisome numbers at 5 uM incubated for 48 hrs in presence of ROS scavenger NAC by immunostaining based analysis
[7] = system: HeLa; test: Induction of pexophagy in wild-type human HeLa cells assessed as decrease in ABCD3 protein expression at 5 uM incubated for 48 hrs by Western blot analysis
[8] = system: HeLa; test: Induction of pexophagy in human HeLa cells assessed as increase in ATM phosphorylation at serine 1981 residue at 5 uM cotreated with ROS scavenger NAC measured at 48 hrs by Western blot analysis
[9] = system: HeLa; test: Induction of pexophagy in wild-type human HeLa cells assessed as reduction in peroxisomes at 5 uM incubated for 48 hrs by immunostaining based analysis
[10] = system: HeLa; test: Induction of pexophagy in human HeLa cells assessed as reduction in peroxisome numbers at 5 uM incubated for 48 hrs in presence of anti-ABCD3 antibody by immunostaining based analysis
[11] = system: HeLa; test: Induction of TFEB nuclear translocation in human HeLa cells assessed as decrease in TFEB phoshorylation at 5 uM measured at 48 hrs by Western blot analysis
[12] = system: HeLa; test: Induction of autophagic flux in human HeLa cells at 5 uM preincubated for 36 hrs followed by addition of Bafilomycin A1 and measured after 12 hrs by Western blot analysis; settings: time 48.0 hrs
[13] = system: HeLa; test: Induction of pexophagy in human HeLa cells at 5 uM measured at 48 hrs by immunostaining based analysis
[14] = system: HeLa; test: Induction of pexophagy in ATG5 knockout human HeLa cells assessed as decrease in LC3I protein expression at 5 uM incubated for 48 hrs by Western blot analysis
[15] = system: HeLa; test: Induction of pexophagy in human HeLa cells assessed as increase in ROS levels at 5 uM incubated for 48 hrs in presence of ROS scavenger NAC by DCFH-DA staining based assay
[16] = system: HeLa; test: Induction of pexophagy in wild-type human HeLa cells assessed as decrease in LC3I protein expression at 5 uM incubated for 48 hrs by Western blot analysis
[17] = system: HeLa; test: Induction of TFEB nuclear translocation in human HeLa cells assessed as decrease in TFEB phoshorylation at 5 uM cotreated with ROS scavenger NAC measured at 48 hrs by Western blot analysis
[18] = system: HeLa; test: Induction of pexophagy in ATG5 knockout human HeLa cells assessed as decrease in ABCD3 protein expression at 5 uM incubated for 48 hrs by Western blot analysis
[19] = system: HeLa; test: Induction of pexophagy in ATG5 knockout human HeLa cells assessed as reduction in peroxisomes at 5 uM incubated for 48 hrs by immunostaining based analysis
[20] = system: TERT-RPE1; test: Induction of pexophagy in human TERT-RPE1 cells expressing mRFP-EGFP-SKL assessed as increase in red-only puncta at 5 uM incubated for 48 hrs by fluorescence microscopic analysis
[21] = system: HeLa; test: Induction of autophagy in human HeLa cells assessed as reduction in peroxisomes number golgi apparatus at 5 uM incubated for 48 hrs in presence of FTCD antibody by fluorescence microscopic analysis
[22] = system: HeLa; test: Induction of autophagy in human HeLa cells assessed as reduction in peroxisomes number in endoplasmic reticulum at 5 uM incubated for 48 hrs in presence of P4HB antibody by fluorescence microscopic analysis
[23] = system: HeLa; test: Induction of pexophagy in ATG5 knockout human HeLa cells assessed as […] in LC3II protein expression at 5 uM incubated for 48 hrs by Western blot analysis
[24] = system: HeLa; test: Induction of TFEB nuclear translocation in human HeLa cells expressing EGFP-TFEB at 5 uM measured at 48 hrs in presence of ROS scavenger NAC by fluorescence microscopic analysis
[25] = system: HeLa; test: Induction of pexophagy in human HeLa cells expressing HyPer-PTS1 assessed as reduction in peroxisome numbers at 5 uM incubated for 48 hrs by immunostaining based analysis
[26] = system: HeLa; test: Induction of pexophagy in human HeLa cells assessed as increase in ATM phosphorylation at serine 1981 residue at 5 uM measured at 48 hrs by Western blot analysis

Cc1ccc(OCCn2c(C)c(C=C3C(=O)NC(=S)NC3=O)c3ccccc32)c(C)c1
Activity [1]: Active
Activity [2]: Active
Activity [3]: Active
Activity [4]: Active
Activity [5]: Active
Activity [6]: inactive
Activity [7]: Active
Activity [8]: inactive
Activity [9]: Active
Activity [10]: Active
Activity [11]: Active
Activity [12]: Active
Activity [13]: Active
Activity [14]: inactive
Activity [15]: Active
Activity [16]: Active
Activity [17]: inactive
Activity [18]: inactive
Activity [19]: inactive
Activity [20]: Active
Activity [21]: Active
Activity [22]: Active
Activity [23]: inactive
Activity [24]: Active
Activity [25]: Active
Activity [26]: Active
